Results as given in BindingDB's records for patent US20240300941 (Zhuhai Yufan Biotechnologies, 2024).

Molecular target: Mitogen-activated protein kinase kinase kinase kinase 1 (Homo sapiens, UniProt Q92918)
Test: HPK1 ADP-Glo Enzyme Assay
Experimental: The buffer used in the enzyme assay contains 5 mM MOPS (pH=7.2), 2.5 mM β-Glycerol Phosphate, 0.4 mM EDTA, 1 mM EGTA, 0.05 mM DTT, 5 mM MgCl2. The compound was dissolved in 100% DMSO at the concentration was 10 mM. The initial concentration of the test was 5 uM, and ten data points were diluted by three-fold gradient, and each point was repeatedly measured twice. The HPK1 protein was purchased from Thermo (Cat. No. PV6355) and diluted to 2× stock solution at the concentration of 10 nM (the final concentration of the enzyme assay was 5 nM). 2.5 µl of 2×HPK1 protein was added to each well of the plate containing the test compound, centrifuged at 1000 rpm for 30 seconds, and then incubated at 25° C. for 15 minutes. MBP protein was purchased from Millipore (Cat. No. 13-110) and ATP was purchased from Sigma (Cat. No. A7699-5G) and the two were formulated into 2× working solutions at concentrations of 4 uM and 80 uM. Added 2.5 μl mixture of 2×MBP and ATP, centrifuged at 1000 rpm for 30 seconds, then incubated at 25° C. for 90 minutes. Then added 5 ul of ADP-Glo (Promega, Cat. No. V9102) to the assay plate and incubated […] at 25° C. for 60 minutes. Finally, 10 ul of the kinase assay reagent (Promega, Cat. No. V9102) was added to the assay plate, centrifuged at 1000 rpm for 30 seconds at 25° C. for 60 minutes, and the […] was determined.

Mitogen-activated protein kinase kinase kinase kinase 1, sequence (Q92918 whole entry): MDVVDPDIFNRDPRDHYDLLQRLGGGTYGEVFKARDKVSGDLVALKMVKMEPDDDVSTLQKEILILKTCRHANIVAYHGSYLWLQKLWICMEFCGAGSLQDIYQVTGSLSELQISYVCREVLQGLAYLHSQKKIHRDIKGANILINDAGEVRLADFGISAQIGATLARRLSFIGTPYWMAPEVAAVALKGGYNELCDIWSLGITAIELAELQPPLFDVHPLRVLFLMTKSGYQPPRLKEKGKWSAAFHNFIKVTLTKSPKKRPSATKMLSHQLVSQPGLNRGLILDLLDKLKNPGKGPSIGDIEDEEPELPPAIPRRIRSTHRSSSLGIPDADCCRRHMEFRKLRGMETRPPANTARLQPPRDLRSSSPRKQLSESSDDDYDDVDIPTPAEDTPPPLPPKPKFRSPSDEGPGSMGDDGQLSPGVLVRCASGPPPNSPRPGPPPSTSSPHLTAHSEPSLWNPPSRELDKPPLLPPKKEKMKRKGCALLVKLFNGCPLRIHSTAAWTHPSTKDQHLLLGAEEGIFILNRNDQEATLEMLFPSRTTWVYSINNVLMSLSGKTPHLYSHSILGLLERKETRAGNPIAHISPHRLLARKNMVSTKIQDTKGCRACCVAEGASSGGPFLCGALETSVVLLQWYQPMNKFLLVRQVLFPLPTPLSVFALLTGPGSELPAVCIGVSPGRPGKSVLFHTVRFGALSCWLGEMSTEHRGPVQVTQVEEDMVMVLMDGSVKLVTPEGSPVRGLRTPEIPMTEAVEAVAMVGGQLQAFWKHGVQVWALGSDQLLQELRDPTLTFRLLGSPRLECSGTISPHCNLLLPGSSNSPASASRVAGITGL

Row | IC50 | Compound
1 | < 100 nM | CN1CCC(c2ncc(-c3cnc(N)c(OCc4cccc(C#CC(C)(C)O)c4)c3)s2)CC1 [US20240300941, Compound A3]
2 | < 100 nM | CN1CCC(c2ncc(-c3cnc(N)c(OCc4ccnc(C#CC(C)(C)O)c4)c3)s2)CC1 [US20240300941, Compound A10]
3 | < 100 nM | Nc1ncc(-c2cnc(C3CCNCC3)s2)cc1OCc1ccncc1 [US20240300941, Compound A7]
4 | < 100 nM | Nc1ncc(-c2cnc(C3CCCCC3)s2)cc1OCc1ccncc1 [US20240300941, Compound A37]
5 | < 100 nM | CN1CCC(c2ncc(-c3cnc(N)c(OCc4cccc(C#CC5(O)CCCC5)c4)c3)s2)CC1 [US20240300941, Compound A34]
6 | < 100 nM | CN1CCC(c2ncc(-c3cnc(N)c(OCc4ccnc(Cl)c4)c3)s2)CC1 [US20240300941, Compound A8]
7 | > 1000 nM | CN1CCC(c2ncc(-c3cnc(N)c(OCc4cccc(C#CC5(O)CCCCC5)c4)c3)s2)CC1 [US20240300941, Compound A38]
8 | < 100 nM | CN1CCC(c2ncc(-c3cnc(N)c(OCc4cccc(C#CC5(O)CCC5)c4)c3)s2)CC1 [US20240300941, Compound A40]
9 | < 100 nM | CN1CCN(c2ncc(-c3cnc(N)c(OCc4ccncc4)c3)s2)CC1 [US20240300941, Compound A12]
10 | 100 to 1000 nM | Cc1nc(C2CCN(C)CC2)sc1-c1cnc(N)c(OCc2cccc(C#CC(C)(C)O)c2)c1 [US20240300941, Compound A62]
11 | < 100 nM | CC(C)(O)C#Cc1cccc(COc2cc(-c3cnc(C4CCNCC4)s3)cnc2N)c1 [US20240300941, Compound A42]
12 | > 1000 nM | COc1ccc(COc2cc(-c3cnc(C4CCN(C)CC4)s3)cnc2N)cc1 [US20240300941, Compound A9]
13 | < 100 nM | CC(C)c1ncc(-c2cnc(N)c(OCc3ccncc3)c2)s1 [US20240300941, Compound A36]
14 | < 100 nM | Nc1ncc(-c2cnc(C3CCOCC3)s2)cc1OCc1ccncc1 [US20240300941, Compound A13]
15 | < 100 nM | CC(C)c1ncc(-c2cnc(N)c(OCc3cccc(C#CC(C)(C)O)c3)c2)s1 [US20240300941, Compound A41]
16 | > 1000 nM | CN1CCC(c2ncc(-c3cnc(N)c(OC(C)(C)c4ccncc4)c3)s2)CC1 [US20240300941, Compound A6]

Row | Compound | IC50
17 | CN1CCC(n2cc(-c3cnc(N)c(OCc4ccncc4)n3)c(N)n2)CC1 [US20240300941, Compound A14] | 100 to 1000 nM
